Measurements: patent EP0603240B1, “SAFENING HERBICIDAL PYRAZOLYLSULFONYLUREAS” (priority 1991, dated 1993)

What was measured:
Type in all cases: in vivo
[1] = system: barnyardgrass (Echinochloa crusgalli); assay: Example 8, Procedure II: Herbicide No. 1 + butachlor (No. 9) with antidotes
Experimental: (§1) Containers were filled and compacted with a fumigated silt loam top soil to a depth of about 1.3 cm from the top of the container. A first container was designated as an untreated control, a second container was designated as a herbicide control, and a third container was designated as a herbicide + antidote test container. Each of the containers was seeded with a crop species. A measured amount of herbicide dispersed or dissolved in acetone was applied to a measured quantity of soil. To this same quantity of soil treated with herbicide, there was added a measured amount of antidote dispersed or dissolved in acetone. The quantity of soil treated with the herbicide and antidote was thoroughly mixed to incorporate the herbicide and antidote in the soil uniformly. The seed bed in the third container of soil was covered with the soil treated with the herbicide and antidote and the container was leveled. For each test series, the seed beds of the first and second containers were likewise covered by soil layers. the cover layer of the first container was not treated with herbicide or antidote.
(§2) The containers were then placed on a bench in a greenhouse and sub-irrigated as required for the duration of the test. […] Plant response is measured in terms of percent injury. Antidote efficacy is indicated as the difference in plant injury by the herbicide(s) without the antidote and with the antidote.
(§3) This procedure is the same as Procedure I, but modified in the manner that after incorporation of the chemicals (herbicide and antidote) the containers with the covered seedbed were treated with an initial overhead irrigation equivalent to 0.6 cm rainfall, then subsequently sub-irrigated as required on greenhouse benches.
(§4) In the series of greenhouse tests described below, for routine screening purposes the herbicide/antidote compositions were tested in crop/weed combinations involving corn as the crop and either or both of the weeds barnyardgrass (Echinochloa crusgalli), a monocotyledonous weed, and velvetleaf (Abutilon theophrasti), a dicotyledonous weed. In the tables below, these weeds are indicated by the symbols "BYG" and "VL", respectively.
(§5) In this test, the efficacy of the same five antidotes used in Examples 6 and 7 was investigated in compositions comprising Herbicide No. 1 and as a co-herbicide, butachlor (Herbicide No. 9), active ingredient in MACHETE® herbicide, a leading commercial rice herbicide. The test procedure used in this example was the same as that in Examples 6 and 7.

[2] = system: velvetleaf (Abutilon theophrasti); assay: as above
Experimental: as §1, §2, §3, §4, §5

[3] = system: corn; assay: as above
Experimental: as §1, §2, §3, §5

[4] = system: corn; assay: Example 11, Procedure II: Herbicide No. 1 + metazachlor (No. 14) with antidotes
Experimental: as §1, §2, §3
(§6) In this example, yet another α-chloroacetanilide co-herbicide, metazachlor (Herbicide No. 14) was combined with Herbicide No. 1 for investigation of the effect of various safeners on that composition. Metazachlor is the active ingredient in the commercial herbicide BUTISAN® S, used here as a 500 g/L formulation.

[5] = system: corn; assay: Example 6, Procedure II: Herbicide No. 1 + alachlor (No. 7) with antidotes
Experimental: as §1, §2, §3
This example was designed to investigate the antidotal efficacy of a plurality of antidotal compounds against a composition comprising Herbicide No. 1 in combination with Herbicide No. 7 (alachlor). The antidotal compounds used herein were Nos. 1, 2, 7, 13 and 15.
(§7) In this example, Procedure II described above was followed. The data from the tests in this example is shown in Table 6 and represents averages of duplicate replications.

[6] = system: barnyardgrass (Echinochloa crusgalli); assay: Example 11, Procedure II: Herbicide No. 1 + metazachlor (No. 14) with antidotes
Experimental: as §1, §2, §3, §4, §6

[7] = system: velvetleaf (Abutilon theophrasti); assay: as above
Experimental: as §1, §2, §3, §4, §6

[8] = system: corn; assay: Example 7, Procedure II: Herbicide No. 1 + metolachlor (No. 12) with antidotes
Experimental: as §1, §2, §3, §7
The tests in this example followed the same procedure and antidotes used in Example 6. However, Herbicide No. 12 (metolachlor) was used as the co-herbicide with Herbicide No. 1.

[9] = system: corn; assay: Example 5, Procedure I: Herbicide No. 1 + alachlor (No. 7) with Antidote Nos. 15 and 16; settings: Herbicide Nos. 1 and 7, Table 5
Experimental: as §1, §2
This example describes tests with Antidote Nos. 15 and 16 to safen Herbicide No. 1 according to Procedure I using corn and the weeds barnyardgrass and velvetleaf as the test plants.
In the tests described in this example, the same procedure described in Example 4 was performed simultaneously therewith and under the same conditions, except that a co-herbicide, alachlor, was included in the same composition with Herbicide No. 1 and Antidote Nos. 15 and 16. Alachlor (Herbicide No. 7 herein) is the active ingredient in the commercial product LASSO® herbicide.

[10] = system: corn; assay: Example 3, Procedure I: antidotes against Herbicide No. 1; settings: Herbicide No. 1, Table 3
Experimental: as §1, §2
This example details the results of tests with Antidote Nos. 12, 15 and 16 to safen Herbicide No. 1 over application rates ranging from 4.48 kg/ha down to 0.56 kg/ha, in corn in the presence of barnyardgrass. Procedure I described above was used in these tests.

[11] = Herbicide No.1 0.14 + No.9 2.24 kg/ha + antidote 2.24 kg/ha
[12] = Herbicide No.1 0.14 + No.9 2.24 kg/ha + antidote 8.96 kg/ha
[13] = Herbicide No.1 0.56 + No.9 2.24 kg/ha + antidote 2.24 kg/ha
[14] = Herbicide No.1 0.56 + No.9 2.24 kg/ha + antidote 8.96 kg/ha
[15] = Herbicide No.1 0.56 kg/ha + Herbicide No.14 3.36 kg/ha, antidote rate 2.24 kg/ha
[16] = Herbicide No.1 0.56 kg/ha + Herbicide No.14 3.36 kg/ha, antidote rate 8.96 kg/ha
[17] = Herbicide No.1 1.12 kg/ha + Herbicide No.14 3.36 kg/ha, antidote rate 2.24 kg/ha
[18] = Herbicide No.1 1.12 kg/ha + Herbicide No.14 3.36 kg/ha, antidote rate 8.96 kg/ha
[19] = Herbicide No.1 0.14 + No.7 4.48 kg/ha + antidote 2.24 kg/ha
[20] = Herbicide No.1 0.14 + No.7 4.48 kg/ha + antidote 8.96 kg/ha
[21] = Herbicide No.1 0.56 + No.7 4.48 kg/ha + antidote 2.24 kg/ha
[22] = Herbicide No.1 0.56 + No.7 4.48 kg/ha + antidote 8.96 kg/ha
[23] = Herbicide No.1 0.14 + No.12 3.36 kg/ha + antidote 2.24 kg/ha
[24] = Herbicide No.1 0.14 + No.12 3.36 kg/ha + antidote 8.96 kg/ha
[25] = Herbicide No.1 0.56 + No.12 3.36 kg/ha + antidote 2.24 kg/ha
[26] = Herbicide No.1 0.56 + No.12 3.36 kg/ha + antidote 8.96 kg/ha

Compound	% Injury BYG [1, 11] [%]	% Injury BYG [1, 12] [%]	% Injury BYG [1, 13] [%]	% Injury BYG [1, 14] [%]	% Injury VL [2, 11] [%]	% Injury VL [2, 12] [%]	% Injury VL [2, 13] [%]	% Injury VL [2, 14] [%]	% Injury Corn [3, 11] [%]	% Injury Corn [3, 12] [%]	% Injury Corn [3, 13] [%]	% Injury Corn [3, 14] [%]	% Injury Corn [5, 19] [%]	% Injury Corn [5, 20] [%]	% Injury Corn [5, 21] [%]	% Injury Corn [5, 22] [%]	% Injury BYG [6, 15] [%]	% Injury BYG [6, 16] [%]	% Injury BYG [6, 17] [%]	% Injury BYG [6, 18] [%]	further results
CC1(C(Cl)Cl)OCCO1 [compound 13]	99	99	99	100	75	80	85	85	25	10	45	30	0	0	5	15	100	100	100	100	% Injury Corn [4, 15]: 75%; % Injury Corn [4, 16]: 40%; % Injury Corn [4, 17]: 60%; % Injury Corn [4, 18]: 70%; % Injury VL [7, 15]: 85%; % Injury VL [7, 16]: 85%; % Injury VL [7, 17]: 90%; % Injury VL [7, 18]: 95%; % Injury Corn [8, 23]: 0%; % Injury Corn [8, 24]: 0%; % Injury Corn [8, 25]: 10%; % Injury Corn [8, 26]: 10%
O=C1OC(=O)c2cccc3cccc1c23 [compound 2]	99	99	99	98	70	75	90	80	15	15	25	20	0	15	10	15	99	99	100	100	% Injury VL [7, 15]: 85%; % Injury VL [7, 16]: 90%; % Injury VL [7, 17]: 97%; % Injury VL [7, 18]: 85%; % Injury Corn [8, 23]: 0%; % Injury Corn [8, 24]: 0%; % Injury Corn [8, 25]: 10%; % Injury Corn [8, 26]: 15%
CC1(C)OC(c2ccco2)CN1C(=O)C(Cl)Cl (stereo not shown) [Antidote No. 15, Oxazolidine, 3-(dichloroacetyl)-5-(2-furanyl)-2,2-dimethyl]	–	–	–	–	–	–	–	–	–	–	–	–	–	–	–	–	–	–	–	–	safening of corn, assessment in words ([3]; Herbicide Nos. 1 and 9, Table 8): best safening effect across all four treatments; safening of corn, assessment in words ([4]; Herbicides 1 and 14, Table 11): outperformed the antidotes (2 and 13) of other chemistries; safening of corn, assessment in words [9]: substantial safening of corn; safening of corn, assessment in words [10]: excellent protection for corn
O=C(C(Cl)Cl)N1CCOC12CCCCC2 [compound 7]	97	99	99	99	70	65	75	65	5	10	25	20	0	10	10	5	99	100	99	99	% Injury VL [7, 15]: 80%; % Injury VL [7, 16]: 85%; % Injury VL [7, 17]: 90%; % Injury VL [7, 18]: 90%; % Injury Corn [8, 23]: 10%; % Injury Corn [8, 24]: 10%; % Injury Corn [8, 26]: 15%
